Read-outs that look alike come from different tables or passages of the source.
What was measured:
Type in all cases: cell-based
5HT2A sensor [1] = experiment: 5HT2A sensor assay, agonist mode (sLight1.3s HEK293T stable line); settings: percent relative to 5-HT at 100 uM; for 5HT2A Agonist mean @ 100 nM (%): 100 nM compound; for 5HT2A Agonist mean @ 10 μM (%): 10 μM compound; for 5HT2A Agonist mean @ 100 μM (%): 100 μM compound
Procedure, shortened: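 Fluorescence change, dFF=(Fsat−Fapo)/Fapo, was taken from membrane images (460 nm excitation) before and after compound addition and scaled as % activation, with the DMSO mean as 0 and the 5HT mean as 100. The cells were sLight1.3s HEK293T in HBSS. Final compound levels were 100 μM, 10 μM and 100 nM in 0.1% DMSO, in triplicate.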

rat cortical neurons = experiment: Neurite outgrowth assay; settings: Cortical neurone, 1 hour treatment at DIV 4, analysed DIV 7, fold vs DMSO control
Text: Neurite outgrowth assay. Changes in the pattern of neurite outgrowth have been implicated in neurodegenerative disorders as well as traumatic injuries. The discovery of new compounds that can positively affect neuritogenesis are important for developing new therapeutics for neurological diseases. Measurement of neurite outgrowth of rat cortical neurons using an automated image-based assay was used to determine the neuroplastic effects of the compounds of the present invention. In some embodiments, a compound of the present invention increases the pattern of neurite outgrowth. In some embodiments, a compound of the present invention increases neurite average length compared to a control. In some embodiments, a compound of the present invention increases neurite branch points compared to a control. In some embodiments, a compound of the present invention increases neurite average length and neurite branch points compared to a control.
Neurite Outgrowth Assay. Rat cortical neurons (20,000 cells/well) were freshly isolated from embryonic day 18 rats and cultured in Neurobasal Medium (+B27). The cultured cells were plated in 96 well-plates (avoiding external wells). At DIV 4, the neurons were treated with compound or control (10 μM) for 1 hour followed by complete washout of the compound. At DIV 7, the neurons were analyzed. The experiments were performed in triplicate. Neurite outgrowth was measured analyzing the following parameters: Number of Cell Bodies, total neurite length (pixels), Root Count, Segments, Extremities Count and node points. Changes in the pattern of neurite outgrowth of the neurons were analyzed by immunocytochemistry against β-III-tubulin. Pictures were acquired by the CellInsight CX7 from Thermo Fisher and analyzed using its software. Results generated in the equipment were maximum neurite length, extremity count, root count, dendrite branch points, and total neurite length. The results were compared to DMSO control, representing the fold-change in neuronal outgrowth.

5HT2A sensor [2] = experiment: 5HT2A sensor assay, antagonist mode (sLight1.3s HEK293T stable line); settings: relative to 5-HT at 100 nM; for 5HT2A Antagonist mean @ 100 nM (%): 100 nM compound; for 5HT2A Antagonist mean @ 10 μM (%): 10 μM compound; for 5HT2A Antagonist mean @ 100 μM (%): 100 μM compound
Procedure, shortened: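 Inactivation score is computed from membrane dFF as (dFF(compound+5HT)−dFF(5HT))/dFF(5HT), with HBSS-only fluorescence as Fapo. Final concentrations: 5-HT 100 nM added first, then compound at 100 nM, 10 μM or 100 μM in 0.1% DMSO. Triplicates; FITC imaging, 5 fields per well.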

5HT2A = molecular target: T1, 5HT2A (Homo sapiens, UniProt P28223); experiment: Calcium flux assay (Calcium secondary messenger pathway); settings: agonist mode
T1 construct: expressed in transfected cells
Text: Calcium Flux Assay. Calcium Secondary Messenger Pathway. The Calcium No Wash^PLUS assay monitors the activation of a GPCR (e.g., 5HT2A) via Gq secondary messenger signaling in a live cell, non-imaging assay format. Calcium mobilization in PathHunter® cell lines or other cell lines stably expressing Gq-coupled GPCRs (e.g., 5HT2A) is monitored using a calcium-sensitive dye that is loaded into cells. GPCR (e.g., 5HT2A) activation by a compound results in the release of calcium from intracellular stores and an increase in dye fluorescence that is measured in real-time. In some embodiments, the ability of a compound of the present invention to modulate 5-HT2A function is determined using a calcium flux assay. In some embodiments, a compound of the present invention activates a calcium flux assay.
Calcium Secondary Messenger Pathway. Cell lines were expanded from freezer stocks according to standard procedures. Cells were seeded in a total volume of 20 μL into black-walled, clear-bottom, Poly-D-lysine coated 384-well microplates and incubated at 37° C. for the appropriate time prior to testing. Assays were performed in 1× Dye Loading Buffer consisting of 1× Dye, 1× Additive A and 2.5 mM Probenecid in HBSS/20 mM Hepes. Probenicid was prepared fresh. Cells were loaded with dye prior to testing. Media was aspirated from cells and replaced with 20 μL Dye Loading Buffer. Cells were incubated for 30-60 minutes at 37° C.
For agonist determination, cells were incubated with sample to induce response. After dye loading, cells were removed from the incubator and 10 μL HBSS/20 mM Hepes was added. 3× vehicle was included in the buffer when performing agonist dose curves to define the EC80 for subsequent antagonist assays. Cells were incubated for 30 minutes at room temperature in the dark to equilibrate plate temperature. Intermediate dilution of sample stocks was performed to generate 4× sample in assay buffer. Compound agonist activity was measured on a FLIPR Tetra (MDS). Calcium mobilization was monitored for 2 minutes and 10 μL 4× sample in HBSS/20 mM Hepes was added to the cells 5 seconds into the assay.
Compound activity was analyzed using CBIS data analysis suite (ChemInnovation, CA). For agonist mode assays, percentage activity is calculated using the following formula: % Activity=100%×(mean RFU of test sample−mean RFU of vehicle control)/(mean MAX RFU control ligand−mean RFU of vehicle control).

[3] = read-out: Neurite Average Length @ 10 μM
[4] = read-out: Neurite Branch Points: @ 10 μM

T1 sequence (P28223 whole entry): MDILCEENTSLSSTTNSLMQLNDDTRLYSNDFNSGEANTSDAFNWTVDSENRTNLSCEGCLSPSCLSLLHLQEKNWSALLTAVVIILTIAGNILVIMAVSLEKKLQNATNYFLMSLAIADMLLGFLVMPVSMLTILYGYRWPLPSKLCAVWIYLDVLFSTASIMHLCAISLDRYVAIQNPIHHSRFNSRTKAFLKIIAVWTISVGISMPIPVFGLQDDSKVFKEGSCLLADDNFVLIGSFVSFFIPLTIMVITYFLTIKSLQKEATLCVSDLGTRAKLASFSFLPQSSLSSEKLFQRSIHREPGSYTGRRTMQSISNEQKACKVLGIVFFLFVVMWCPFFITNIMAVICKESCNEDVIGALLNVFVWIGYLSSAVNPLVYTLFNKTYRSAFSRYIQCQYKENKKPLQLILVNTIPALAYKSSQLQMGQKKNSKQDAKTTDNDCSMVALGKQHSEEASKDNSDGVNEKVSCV

| SMILES | 5HT2A Agonist mean @ 100 nM (%) (5HT2A sensor [1]) | 5HT2A Agonist mean @ 10 μM (%) (5HT2A sensor [1]) | 5HT2A Agonist mean @ 100 μM (%) (5HT2A sensor [1]) | fold induction at 10 µM (rat cortical neurons; [3]) | fold induction at 10 µM (rat cortical neurons; [4]) | 5HT2A Antagonist mean @ 100 nM (%) (5HT2A sensor [2]) | 5HT2A Antagonist mean @ 10 μM (%) (5HT2A sensor [2]) | 5HT2A Antagonist mean @ 100 μM (%) (5HT2A sensor [2]) | EC50 (5HT2A) |
| --- | --- | --- | --- | --- | --- | --- | --- | --- | --- |
| FC(F)(F)Oc1ccc2c(ccn2CCN2CCOCC2)c1 [Example 52, 4-(2-(5-(trifluoromethoxy)-1H-indol-1-yl)ethyl)morpholine] | B (does not activate 5HT2A sensor assay in agonist mode) | B (does not activate 5HT2A sensor assay in agonist mode) | A (activates 5HT2A sensor assay in agonist mode) | 1.5 to 3 | 1.5 to 3 | A (inhibits 5HT response by >100%) | B (inhibits 5HT response by 75% to 100%) | B (inhibits 5HT response by 75% to 100%) | > 10 µM |
| CN(C)CCn1cnc2ccccc21 [Example 57, 2-(1H-benzo[d]imidazol-1-yl)-N,N-dimethylethan-1-amine] | B (does not activate 5HT2A sensor assay in agonist mode) | B (does not activate 5HT2A sensor assay in agonist mode) | B (does not activate 5HT2A sensor assay in agonist mode) | 1.5 to 3 | 1.5 to 3 | B (inhibits 5HT response by 75% to 100%) | A (inhibits 5HT response by >100%) | A (inhibits 5HT response by >100%) | > 10 µM |
| Cc1nc2ccccc2n1CCN(C)C [Example 58, N,N-dimethyl-2-(2-methyl-1H-benzo[d]imidazol-1-yl)ethan-1-amine] | B (does not activate 5HT2A sensor assay in agonist mode) | B (does not activate 5HT2A sensor assay in agonist mode) | A (activates 5HT2A sensor assay in agonist mode) | 1.5 to 3 | 1.5 to 3 | A (inhibits 5HT response by >100%) | A (inhibits 5HT response by >100%) | A (inhibits 5HT response by >100%) | > 10 µM |
| COc1cc2ccn(C[C@@H](C)N(C)C)c2cc1F [Example 61, (R)-1-(6-fluoro-5-methoxy-1H-indol-1-yl)-N,N-dimethylpropan-2-amine] | B (does not activate 5HT2A sensor assay in agonist mode) | B (does not activate 5HT2A sensor assay in agonist mode) | B (does not activate 5HT2A sensor assay in agonist mode) | 1.5 to 3 | 1.5 to 3 | A (inhibits 5HT response by >100%) | A (inhibits 5HT response by >100%) | A (inhibits 5HT response by >100%) | > 10 µM |
| COc1cc2ccn(C[C@@H](C)N(C)C)c2cc1OC [Example 62, (R)-1-(5,6-dimethoxy-1H-indol-1-yl)-N,N-dimethylpropan-2-amine] | B (does not activate 5HT2A sensor assay in agonist mode) | B (does not activate 5HT2A sensor assay in agonist mode) | A (activates 5HT2A sensor assay in agonist mode) | 1.5 to 3 | 1.5 to 3 | B (inhibits 5HT response by 75% to 100%) | B (inhibits 5HT response by 75% to 100%) | A (inhibits 5HT response by >100%) | > 10 µM |
| COc1cc(OC)c2c(ccn2C[C@@H](C)N(C)C)c1 [Example 63, (R)-1-(5,7-dimethoxy-1H-indol-1-yl)-N,N-dimethylpropan-2-amine] | B (does not activate 5HT2A sensor assay in agonist mode) | B (does not activate 5HT2A sensor assay in agonist mode) | B (does not activate 5HT2A sensor assay in agonist mode) | 1.5 to 3 | 1.5 to 3 | B (inhibits 5HT response by 75% to 100%) | B (inhibits 5HT response by 75% to 100%) | A (inhibits 5HT response by >100%) | > 10 µM |
| COc1cc(C)c2c(ccn2C[C@@H](C)N(C)C)c1 [Example 65, (R)-1-(5-methoxy-7-methyl-1H-indol-1-yl)-N,N-dimethylpropan-2-amine] | B (does not activate 5HT2A sensor assay in agonist mode) | B (does not activate 5HT2A sensor assay in agonist mode) | B (does not activate 5HT2A sensor assay in agonist mode) | 1.5 to 3 | 1.5 to 3 | C (inhibits 5HT response by <75%) | A (inhibits 5HT response by >100%) | A (inhibits 5HT response by >100%) | > 10 µM |
| C[C@H](Cn1ccc2c(F)c(F)ccc21)N(C)C [Example 67, (R)-1-(4,5-difluoro-1H-indol-1-yl)-N,N-dimethylpropan-2-amine] | B (does not activate 5HT2A sensor assay in agonist mode) | B (does not activate 5HT2A sensor assay in agonist mode) | B (does not activate 5HT2A sensor assay in agonist mode) | 1.5 to 3 | > 3 | A (inhibits 5HT response by >100%) | A (inhibits 5HT response by >100%) | A (inhibits 5HT response by >100%) | > 10 µM |

— patent US11254640B2, “N-substituted indoles and other heterocycles for treating brain disorders” (The Regents of the University of California, priority 2019, dated 2022)
